Assay [1] concerns A375 cells. Kind of assay: A375 Cell Proliferation Assay (1). Type of assay: cell-based. The following applies: Homo sapiens, A-375. The procedure, abridged:
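Resazurin fluorescence (excitation 540 nm, emission 600 nm, after a further 5-6 h) gave IC50s from triplicate compound dilution series.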

In assay [2] the test system is Miapaca-2 cells. The assay is described as follows: MiaPaca-2 Cell Proliferation Assay (1). Type of assay: cell-based. To be noted: Homo sapiens, MIA PaCa-2, single agent, read-out: MiaPaca2 (1) IC50. The procedure, abridged:
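Resazurin was added after compound exposure and incubated 5-6 h, then fluorescence read at 540 nm excitation and 600 nm emission to give IC50.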

Assay [3] addresses A-Raf kinase (SEQ. ID No: 1) (Homo sapiens (Human), UniProt P10398, Y301D/Y302D). Kind of assay: Biochemical Assay for A-Raf (1). To be noted: Table J, assay version (1); read-out: ARAF (1) IC50. In short, it runs like this:
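IC50 values were derived by four-parameter sigmoidal fitting of percent inhibition, calculated from reaction rates over the 4–5 h window. Absorbance at 340 nm was tracked for 6 h at 30 °C via coupled PK/LDH NADH depletion. Conditions: 1 mM ATP, 30.1 nM MEK substrate, 5.55 nM A-Raf (Y301D/Y302D), Tris pH 7.5, 1% DMSO.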

The test system of assay [4] is H2405 cells. Kind of assay: H2405 Cell Proliferation Assay (1). Type of assay: cell-based. To be noted: Homo sapiens, NCI-H2405. In short, it runs like this:
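Viability was read by resazurin reduction (ex 540 nm, em 600 nm; 5-6 h with 40 μL of 440 μM stock) after 67-72 h compound exposure at 37 °C.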

Structures are written as SMILES. Bounds are passed on as bounds.

In general, IC50 refers to the concentration needed to halve the response being measured.

Chain of A-Raf kinase (SEQ. ID No: 1) (P10398 other isoform, or with tags, fused parts or gaps Y301D (already in the parent)/Y302D (already in the parent)): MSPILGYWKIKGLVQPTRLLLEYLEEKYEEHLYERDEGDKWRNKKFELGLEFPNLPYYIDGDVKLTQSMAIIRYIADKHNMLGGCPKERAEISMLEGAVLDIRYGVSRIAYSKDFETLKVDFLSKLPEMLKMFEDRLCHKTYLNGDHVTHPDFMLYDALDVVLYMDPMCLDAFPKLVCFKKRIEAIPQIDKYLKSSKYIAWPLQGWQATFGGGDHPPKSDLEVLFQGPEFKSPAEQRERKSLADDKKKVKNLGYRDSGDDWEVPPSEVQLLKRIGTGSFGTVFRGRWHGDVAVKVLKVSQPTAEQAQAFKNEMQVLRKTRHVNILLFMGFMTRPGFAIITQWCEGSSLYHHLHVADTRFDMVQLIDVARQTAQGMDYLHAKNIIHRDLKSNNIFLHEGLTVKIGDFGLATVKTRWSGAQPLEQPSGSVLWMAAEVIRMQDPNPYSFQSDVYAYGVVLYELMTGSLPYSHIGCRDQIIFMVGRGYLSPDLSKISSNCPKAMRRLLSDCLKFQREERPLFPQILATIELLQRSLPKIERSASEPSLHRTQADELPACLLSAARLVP

Consider `Cc1ncc(NC(=O)c2ccnc(C(C)(C)C#N)c2)cc1-c1cc(-c2cc(NC(=O)C3CC3)ncn2)cc(C2CC2)c1` [Example 218], for which the IC50 in assay [1] is not above 100 nM; in assay [2] it was 1000 to 10000 nM; in assay [3], 1000 to 10000 nM; in assay [4], 100 to 500 nM.

Turning to `Cc1ncc(NC(=O)c2cnnc(C3CC3)c2)cc1-c1ccnc(-c2ccnc(NC(=O)C3CC3)c2)n1` [Example 278], the IC50 in assay [1], in assay [2], in assay [3] and in assay [4] was 1000 to 10000 nM each time.

For the compound `Cc1ccc(NC(=O)c2ccnc(C(C)(C)C#N)c2)cc1-c1cccc(-c2cc(N)ncn2)c1` [Example 267], the IC50 in assay [1] was in the range of 100 to 500 nM; in assay [2], 1000 to 10000 nM; in assay [3], 1000 to 10000 nM; in assay [4] it was 500 to 1000 nM.

Take `Cc1ccc(NC(=O)c2ccnc(C(F)F)c2)cc1-c1ccnc(-c2ccnc(NC(=O)C3CC3)c2)n1` [Example 189]: the IC50 in assay [1] fell in the range of 100 to 500 nM; in assay [2], 1000 to 10000 nM; in assay [3], 500 to 1000 nM; in assay [4], 100 to 500 nM.

As for `Cc1ccc(NC(=O)c2ccnc(C(F)(F)F)c2)cc1-c1ccnc(-c2ccnc(N)c2)c1` [Example 16, N-(3-(2′-amino-[2,4′-bipyridin]-4-yl)-4-methylphenyl)-2-(trifluoromethyl)isonicotinamide], the IC50 in assay [1], in assay [2], in assay [3] and in assay [4] was 1000 to 10000 nM each time.

Consider `Cc1ncc(NC(=O)c2cnnc(C3CC3)c2)cc1-c1ccnc(-c2ccnc(NC(=O)C3CC3)c2)c1` [Example 254], for which the IC50 in assay [1], in assay [2], in assay [3] and in assay [4] was 1000 to 10000 nM each time.

Consider `Cc1ncc(NC(=O)c2ccnc(C3CC3)c2)cc1-c1cccc(-c2ccnc(NC(=O)C3CC3)c2)n1` [Example 270], for which the IC50 in assay [1] was in the range of 100 to 500 nM; in assay [2], 1000 to 10000 nM; in assay [3], 1000 to 10000 nM; in assay [4], 100 to 500 nM.

As to `Cc1ccc(NC(=O)c2cnnc(C3CC3)c2)cc1-c1ccnc(-c2ccnc(NC(=O)C3CC3)c2)n1` [Example 250], the IC50 was 100 to 500 nM in assay [1], 1000 to 10000 nM in assay [2], 1000 to 10000 nM in assay [3] and 100 to 500 nM in assay [4].

For `Cc1ncc(NC(=O)c2ccnc(C(C)(C)C#N)c2)cc1-c1ccnc(-c2ccnc(NC(=O)C3CC3)c2)n1` [Example 193], the IC50 is not above 100 nM in assay [1], 1000 to 10000 nM in assay [2], 1000 to 10000 nM in assay [3] and not above 100 nM in assay [4].

Consider `Cc1ccc(NC(=O)c2cc(CN(C)C)cc(C(F)(F)F)c2)cc1-c1cccc(-c2cc(NC(=O)C3CC3)ncn2)c1` [Example 202], for which the IC50 in assay [1] is not above 100 nM; in assay [2] it was 1000 to 10000 nM; in assay [3], 1000 to 10000 nM; in assay [4] it was 100 to 500 nM.

For `CNC(=O)c1cc(-c2cc(-c3cc(NC(=O)c4ccnc(C(C)(C)F)c4)ccc3C)ccn2)ccn1` [Example 214], the IC50 in assay [1] was not above 100 nM; in assay [2], 1000 to 10000 nM; in assay [3], 1000 to 10000 nM; in assay [4], 100 to 500 nM.

As to `COCCNc1cc(-c2nccc(-c3cc(NC(=O)c4ccnc(C(C)(C)C#N)c4)ccc3C)n2)ccn1` [Example 221], the IC50 in assay [1], in assay [2], in assay [3] and in assay [4] was 1000 to 10000 nM each time.

Regarding `CNC(=O)c1cc(-c2cccc(-c3cc(NC(=O)c4ccnc(C(C)(C)C#N)c4)cnc3C)c2)ccn1` [Example 192], the IC50 in assay [1] is not above 100 nM; in assay [2] it was 1000 to 10000 nM; in assay [3], 1000 to 10000 nM; in assay [4], 100 to 500 nM.

For `CNC(=O)c1cc(-c2cncc(-c3cc(NC(=O)c4ccnc(C(C)(C)C#N)c4)ccc3C)c2)ncn1` [Example 235], the half-maximal inhibitory concentration (IC50) is not above 100 nM in assay [1], 1000 to 10000 nM in assay [2], 1000 to 10000 nM in assay [3] and 100 to 500 nM in assay [4].

On to `Cc1ccc(NC(=O)c2ccnc(C3CC3)c2)cc1-c1ccnc(-c2ccnc(NC(=O)C3CC3)c2)n1` [Example 229], for which the IC50 in assay [1] is 100 to 500 nM; in assay [2] it was 1000 to 10000 nM; in assay [3] it was 100 to 500 nM; in assay [4], not above 100 nM.

Consider `Cc1cc(-c2cc(NC(=O)C3CC3)ncn2)cc(-c2cc(NC(=O)c3ccnc(C(C)(C)C#N)c3)ccc2C)c1` [Example 212], for which the IC50 is not above 100 nM in assay [1], 1000 to 10000 nM in assay [2], 1000 to 10000 nM in assay [3] and not above 100 nM in assay [4].

As to `Cc1ncc(NC(=O)c2ccnc(C(C)(C)C#N)c2)cc1-c1cccc(-c2ccnc(NC(=O)C3CC3)c2)c1` [Example 222], the IC50 was not above 100 nM in assay [1], 1000 to 10000 nM in assay [2], 500 to 1000 nM in assay [3] and 100 to 500 nM in assay [4].

As to `CNC(=O)c1cc(-c2cc(-c3cc(NC(=O)c4ccnc(C(C)(C)OC)c4)ccc3C)ccn2)ccn1` [Example 264], the IC50 is not above 100 nM in assay [1], 1000 to 10000 nM in assay [2], 1000 to 10000 nM in assay [3] and 100 to 500 nM in assay [4].

For `Cc1ncc(NC(=O)c2ccnc(C(C)(C)C#N)c2)cc1-c1ccnc(-c2ccnc(NC(=O)C3CC3)c2)c1` [Example 251], the IC50 in assay [1] is not above 100 nM; in assay [2], 1000 to 10000 nM; in assay [3] it was 1000 to 10000 nM; in assay [4], 100 to 500 nM.

As for `COC(=O)Nc1cc(-c2cccc(-c3cc(NC(=O)c4ccnc(C(C)(C)C#N)c4)cnc3C)c2)ncn1` [Example 225], the IC50 in assay [1] is not above 100 nM; in assay [2], 1000 to 10000 nM; in assay [3] it was 1000 to 10000 nM; in assay [4] it was 500 to 1000 nM.

In the case of `Cc1ccc(NC(=O)c2ccnc(C(C)(C)C#N)c2)cc1-c1cncc(-c2cc(NC(=O)C3CC3)ncn2)c1` [Example 224], the IC50 is not above 100 nM in assay [1], 100 to 500 nM in assay [2], 500 to 1000 nM in assay [3] and not above 100 nM in assay [4].

For the compound `Cc1cc(C(=O)Nc2cnc(C)c(-c3ccnc(-c4ccnc(NC(=O)C5CC5)c4)n3)c2)ccn1` [Example 273], the IC50 in assay [1], in assay [2], in assay [3] and in assay [4] was 1000 to 10000 nM throughout.

Take `Cc1ncc(NC(=O)c2ccnc(C(C)(C)F)c2)cc1-c1cccc(-c2cc(NC(=O)C3CC3)ncn2)c1` [Example 249]: the IC50 was not above 100 nM in assay [1], 1000 to 10000 nM in assay [2], 500 to 1000 nM in assay [3] and 100 to 500 nM in assay [4].

For `Cc1ncc(NC(=O)c2cnn(C(C)(C)C)c2)cc1-c1cccc(-c2cc(NC(=O)C3CC3)ncn2)c1` [Example 279], the IC50 in assay [1] lay in the range of 100 to 500 nM; in assay [2] it was 1000 to 10000 nM; in assay [3], 1000 to 10000 nM; in assay [4] it was 100 to 500 nM.

Regarding `CNC(=O)c1cc(-c2ccnc(-c3cc(NC(=O)c4ccnc(C(C)(C)OC)c4)ccc3C)n2)ccn1` [Example 268], the IC50 in assay [1] is 100 to 500 nM; in assay [3], 1000 to 10000 nM; in assay [4], 100 to 500 nM.

On to `Cc1ccc(NC(=O)c2ccnc(C(C)(C)F)c2)cc1-c1ccnc(-c2ccnc(NC(=O)C3CC3)c2)n1` [Example 186], for which the IC50 in assay [1] was not above 100 nM; in assay [2], 1000 to 10000 nM; in assay [3], 500 to 1000 nM; in assay [4], not above 100 nM.

Take `CNC(=O)c1cc(-c2nc(-c3cc(NC(=O)c4ccnc(C(C)(C)C#N)c4)ccc3C)cc(C3CC3)n2)ccn1` [Example 196]: the values for the IC50 in assay [1], in assay [3] and in assay [4] were not above 100 nM, 1000 to 10000 nM and 100 to 500 nM, respectively.

Turning to `Cc1ccc(NC(=O)c2cc(CN(C)C)cc(C(F)(F)F)c2)cc1-c1cncc(-c2ccnc(NC(=O)C3CC3)c2)n1` [Example 185], the results for the IC50 in assay [1], in assay [3] and in assay [4] were not above 100 nM, 100 to 500 nM and not above 100 nM, respectively.

Regarding `CC(C)(C#N)c1cc(C(=O)Nc2ccc(C#N)c(-c3cccc(-c4cc(NC(=O)C5CC5)ncn4)c3)c2)ccn1` [Example 240], the IC50 lay within 100 to 500 nM in assay [1], 1000 to 10000 nM in assay [3] and 100 to 500 nM in assay [4].

With `CNC(=O)c1cc(-c2cccc(-c3cc(NC(=O)c4ccnc(C(C)(C)C#N)c4)ccc3C)c2)cnn1` [Example 191], the IC50 in assay [1] was not above 100 nM; in assay [3], 1000 to 10000 nM; in assay [4], not above 100 nM.

As for `Cc1ncc(NC(=O)c2ccnc(C3CC3)c2)cc1-c1ccnc(-c2ccnc(NC(=O)C3CC3)c2)n1` [Example 277], the IC50 was in the range of 500 to 1000 nM in assay [1], 1000 to 10000 nM in assay [3] and 100 to 500 nM in assay [4].

Turning to `CNC(=O)c1cc(-c2ccnc(-c3cc(NC(=O)c4ccnc(C(C)(C)F)c4)ccc3C)n2)ccn1` [Example 246], the IC50 in assay [1] lay in the range of 100 to 500 nM; in assay [3] it was 1000 to 10000 nM; in assay [4] it was 100 to 500 nM.

As for `Cc1cc(F)c(NC(=O)c2ccnc(C(C)(C)F)c2)cc1-c1cncc(-c2ccnc(NC(=O)C3CC3)c2)n1` [Example 276], the IC50 in assay [1] was not above 100 nM; in assay [3], 100 to 500 nM; in assay [4], not above 100 nM.

In the case of `CCNC(=O)c1cc(-c2cc(-c3cc(NC(=O)c4ccnc(C(C)(C)C#N)c4)ccc3C)ccn2)ccn1` [Example 266], the IC50 in assay [1] is 100 to 500 nM; in assay [3], 1000 to 10000 nM; in assay [4], 100 to 500 nM.

Regarding `COC(C)(C)C(=O)Nc1cc(-c2cc(-c3cc(NC(=O)c4ccnc(C(C)(C)C#N)c4)ccc3C)ccn2)ccn1` [Example 237], the values for the IC50 in assay [1], in assay [3] and in assay [4] were 1000 to 10000 nM, 1000 to 10000 nM and 500 to 1000 nM, respectively.

The values are drawn from patent US12319655B2, “RAF kinase inhibitors and methods of use thereof” (Deciphera Pharmaceuticals, LLC, priority 2021, dated 2025).
